Experimental data: US20210255193A1, “LYSINE REACTIVE PROBES AND USES THEREOF” (The Scripps Research Institute, priority 2017, published 2021)

Columns and labels:
Assay in all cases: competitive isoTOP-ABPP
Assay type in all cases: binding
[1] = target: T1, SMPD1 Sphingomyelin phosphodiesterase (Homo sapiens, UniProt P17405); conditions: for isoTOP-ABPP ratio (R) at liganded lysine P17405_K118: 50 uM, in vitro, sol, 231
T1 construct: isoTOP-ABPP experiments performed in cell lysates (in vitro); endogenous in cells; host or cells: soluble proteome of human cancer cell lines (MDA-MB-231; Ramos and Jurkat also prepared)
T1 sequence (P17405 47-631): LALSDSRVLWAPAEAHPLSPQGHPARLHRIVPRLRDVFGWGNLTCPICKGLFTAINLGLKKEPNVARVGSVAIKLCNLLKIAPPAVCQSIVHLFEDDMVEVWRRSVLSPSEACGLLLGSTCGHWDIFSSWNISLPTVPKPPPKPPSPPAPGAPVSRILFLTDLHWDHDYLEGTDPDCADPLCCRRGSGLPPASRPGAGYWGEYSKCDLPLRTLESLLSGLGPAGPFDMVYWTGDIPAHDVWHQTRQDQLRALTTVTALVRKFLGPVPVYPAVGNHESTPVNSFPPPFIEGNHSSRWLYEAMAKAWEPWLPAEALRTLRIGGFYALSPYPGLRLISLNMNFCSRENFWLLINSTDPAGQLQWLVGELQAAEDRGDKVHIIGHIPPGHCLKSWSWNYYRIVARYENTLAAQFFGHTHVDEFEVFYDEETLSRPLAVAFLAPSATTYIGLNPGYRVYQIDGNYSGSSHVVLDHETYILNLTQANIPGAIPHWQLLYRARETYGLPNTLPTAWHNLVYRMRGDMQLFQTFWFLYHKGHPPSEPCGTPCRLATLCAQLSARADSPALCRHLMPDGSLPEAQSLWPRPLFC
Procedure, shortened: (§1)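 Cell lysate (0.5 ml) was pre-treated with fragment, 50 μM for activated esters or 100 μM for guanidinylating agents, versus DMSO, then labeled 1 h at ambient temperature with 0.1 mM STP-alkyne. Light/heavy TEV tags attached by CuAAC; R = DMSO/compound MS1 peak-area ratio, median per lysine.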

[2] = target: T2, AKR1C3 Aldo-keto reductase family 1 member C3 (Homo sapiens, UniProt P42330); conditions: for isoTOP-ABPP ratio (R) at liganded lysine P42330_K270: 50 uM, in vitro, sol, 231; for isoTOP-ABPP ratio, lysine P42330_K270: possible other lysine P52895_K270, P17516_K270, Q04828_K270
T2 construct: isoTOP-ABPP experiments performed in cell lysates (in vitro); endogenous in cells; host or cells: soluble proteome of human cancer cell lines (MDA-MB-231; Ramos and Jurkat also prepared)
T2 sequence (P42330 1-323): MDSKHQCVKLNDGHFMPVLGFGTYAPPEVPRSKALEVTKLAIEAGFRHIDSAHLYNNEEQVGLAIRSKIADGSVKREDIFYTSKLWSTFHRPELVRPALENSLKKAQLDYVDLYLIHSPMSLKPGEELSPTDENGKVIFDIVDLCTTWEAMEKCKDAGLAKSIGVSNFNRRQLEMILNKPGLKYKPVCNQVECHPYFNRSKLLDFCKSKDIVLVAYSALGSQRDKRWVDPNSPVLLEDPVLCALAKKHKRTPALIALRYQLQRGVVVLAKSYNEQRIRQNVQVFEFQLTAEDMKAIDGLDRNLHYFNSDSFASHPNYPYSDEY
Procedure, shortened: as §1

[3] = target: T3, MRPL12 39S ribosomal protein L12, mitochondrial (Homo sapiens, UniProt P52815); conditions: for isoTOP-ABPP ratio (R) at liganded lysine P52815_K87: 50 uM, in vitro, sol, 231; for isoTOP-ABPP ratio, lysine P52815_K87: 50 uM_231_sol_in vitro, possible other lysine B4DLN1_K87, P52815_K91
T3 construct: isoTOP-ABPP experiments performed in cell lysates (in vitro); endogenous in cells; host or cells: soluble proteome of human cancer cell lines (MDA-MB-231, Ramos, Jurkat)
Procedure, shortened: as §1

[4] = target: T4, SOD2 Superoxide dismutase (Homo sapiens, UniProt P04179); conditions: for isoTOP-ABPP ratio (R) at liganded lysine P04179_K68: 50 uM, in vitro, sol, 231
T4 construct: isoTOP-ABPP experiments performed in cell lysates (in vitro); endogenous in cells; host or cells: MDA-MB-231 soluble lysate
T4 sequence (P04179 25-222): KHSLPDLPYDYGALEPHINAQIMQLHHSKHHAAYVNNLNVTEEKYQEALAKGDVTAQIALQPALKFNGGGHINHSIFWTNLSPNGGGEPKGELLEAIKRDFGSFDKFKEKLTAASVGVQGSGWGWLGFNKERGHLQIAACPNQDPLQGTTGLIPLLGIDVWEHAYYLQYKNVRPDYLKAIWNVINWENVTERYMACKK
Procedure, shortened: as §1

Row | Structure (SMILES) | isoTOP-ABPP ratio (R) at liganded lysine P42330_K270 [2] | isoTOP-ABPP ratio (R) at liganded lysine P52815_K87 [3] | isoTOP-ABPP ratio (R) at liganded lysine P04179_K68 [4] | also measured
1 | O=C(Oc1ccc([N+](=O)[O-])cc1[N+](=O)[O-])c1ccc2ccccc2n1 [fragment 35, 2,4-Dinitrophenyl quinoline-2-carboxylate] | 0.6 | 0.9 |  | isoTOP-ABPP ratio (R) at liganded lysine P17405_K118 [1]: 1.4
2 | O=C(CCc1coc2cc(F)ccc2c1=O)Oc1ccc([N+](=O)[O-])cc1[N+](=O)[O-] [fragment 36, 2,4-Dinitrophenyl 3-(7-fluoro-4-oxo-4H-chromen-3-yl)propanoate] | 0.6 |  | 2.1 | 
3 | O=C(Oc1ccc([N+](=O)[O-])cc1[N+](=O)[O-])c1ccc(-c2ccccc2)cc1 [fragment 37, 2,4-Dinitrophenyl [1,1′-biphenyl]-4-carboxylate] | 0.8 |  | 1.7 | 
4 | O=C(CC12CC3CC(CC(C3)C1)C2)Oc1ccc([N+](=O)[O-])cc1[N+](=O)[O-] [fragment 38, 2,4-Dinitrophenyl 2-(adamantan-1-yl)acetate] | 0.9 | 0.9 |  | isoTOP-ABPP ratio (R) at liganded lysine P17405_K118 [1]: 1.2
5 | O=C(Oc1ccc([N+](=O)[O-])cc1[N+](=O)[O-])c1ccc(Oc2ccccc2)cc1 [fragment 39, 2,4-Dinitrophenyl 4-phenoxybenzoate] | 0.8 | 1.1 | 1.0 | isoTOP-ABPP ratio (R) at liganded lysine P17405_K118 [1]: 0.8
6 | O=C(Oc1ccc([N+](=O)[O-])cc1[N+](=O)[O-])c1ccccc1Nc1cccc(C(F)(F)F)c1 [fragment 40, 2,4-Dinitrophenyl 2-((3-(trifluoromethyl)phenyl)amino)benzoate] | 2.2 |  |  | 
7 | O=C(Oc1ccc([N+](=O)[O-])cc1[N+](=O)[O-])C(c1ccccc1)(c1ccccc1)c1ccccc1 [fragment 42, 2,4-Dinitrophenyl 2,2,2-triphenylacetate] | 0.9 | 1.0 |  | 
8 | CC(=O)Oc1ccc([N+](=O)[O-])cc1[N+](=O)[O-] [fragment 43, 2,4-Dinitrophenyl acetate] |  |  | 1.4 | 
9 | O=C(ON1C(=O)CCC1=O)c1cc(C(F)(F)F)cc(C(F)(F)F)c1 [fragment 46, 3,5-Bis(trifluoromethyl)benzoic acid NHS ester] |  |  |  | isoTOP-ABPP ratio, lysine P04179_K68 ([4]; 50 uM_231_sol_in vitro): 0.9; isoTOP-ABPP ratio, lysine P17405_K118 ([1]; 50 uM_231_sol_in vitro): 0.7; isoTOP-ABPP ratio, lysine P52815_K87 [3]: 0.6
10 | O=C(Oc1c(F)c(F)c(C(F)(F)F)c(F)c1F)c1cc(C(F)(F)F)cc(C(F)(F)F)c1 [fragment 47, 2,3,5,6-Tetrafluoro-4-(trifluoromethyl)phenyl 3,5-bis(trifluoromethyl)benzoate] |  |  |  | isoTOP-ABPP ratio, lysine P42330_K270 ([2]; 50 uM_231_sol_in vitro): 2.5; isoTOP-ABPP ratio, lysine P52815_K87 [3]: 1.1
11 | O=C(Oc1c(F)c(F)cc(F)c1F)c1cc(C(F)(F)F)cc(C(F)(F)F)c1 [fragment 48, 2,3,5,6-Tetrafluorophenyl 3,5-bis(trifluoromethyl)benzoate] |  |  |  | isoTOP-ABPP ratio, lysine P52815_K87 [3]: 0.9
12 | COC(=O)NC(=NC(=O)OCC1c2ccccc2-c2ccccc21)n1cccn1 [fragment 49, N-Methoxycarbonyl-N′-9-fluorenylmethoxycarbonyl-pyrazole-1-carboxamidine] |  |  |  | isoTOP-ABPP ratio, lysine P04179_K68 ([4]; 100 uM_231_sol_in vitro): 3.3; isoTOP-ABPP ratio, lysine P17405_K118 ([1]; 100 uM_231_sol_in vitro): 8.4; isoTOP-ABPP ratio, lysine P42330_K270 ([2]; 100 uM_231_sol_in vitro): 0.8
13 | CC(C)(C)OC(=O)N=C(NC(=O)OC(C)(C)C)n1cccn1 [fragment 50, reference compound] |  |  |  | isoTOP-ABPP ratio, lysine P17405_K118 ([1]; 100 uM_231_sol_in vitro): 1.3; isoTOP-ABPP ratio, lysine P42330_K270 ([2]; 100 uM_231_sol_in vitro): 0.7
